pEC50: −log10 of the molar value.
Biological target: T1, human GR (Homo sapiens, UniProt P04150)
T1 construct: naturally expresses the human GR; endogenous in cells
T1 sequence (P04150 1-777): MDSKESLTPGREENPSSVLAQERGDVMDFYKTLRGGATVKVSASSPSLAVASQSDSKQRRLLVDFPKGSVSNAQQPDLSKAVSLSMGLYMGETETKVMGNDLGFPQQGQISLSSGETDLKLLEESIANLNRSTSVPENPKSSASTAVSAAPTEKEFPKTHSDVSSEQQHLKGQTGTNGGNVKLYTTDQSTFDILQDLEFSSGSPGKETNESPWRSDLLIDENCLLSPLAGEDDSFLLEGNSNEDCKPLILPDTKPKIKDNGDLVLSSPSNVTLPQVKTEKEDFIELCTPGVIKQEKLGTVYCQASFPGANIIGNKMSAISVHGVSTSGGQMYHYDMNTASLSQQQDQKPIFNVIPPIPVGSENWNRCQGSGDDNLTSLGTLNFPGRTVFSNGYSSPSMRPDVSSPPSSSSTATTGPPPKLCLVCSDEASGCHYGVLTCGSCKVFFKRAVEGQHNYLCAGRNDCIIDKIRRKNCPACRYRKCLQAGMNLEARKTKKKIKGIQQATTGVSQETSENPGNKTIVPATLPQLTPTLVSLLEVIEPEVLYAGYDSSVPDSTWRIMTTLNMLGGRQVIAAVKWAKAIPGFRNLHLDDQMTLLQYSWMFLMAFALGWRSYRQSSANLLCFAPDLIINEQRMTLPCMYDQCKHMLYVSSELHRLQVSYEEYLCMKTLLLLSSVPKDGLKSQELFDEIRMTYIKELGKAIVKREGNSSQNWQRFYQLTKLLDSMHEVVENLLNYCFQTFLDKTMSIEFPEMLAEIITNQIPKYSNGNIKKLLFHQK
Test: Transrepression Assay (GITAR), TNFα-β-lactamase reporter in U937 cells
Assay type: cell-based
Conditions: for Emax: U-937, activity repressed by 100 nM dexamethasone set as 100%; for pEC50: inflection point (IP), TNFα promoter β-lactamase reporter, PMA/LPS; for Transrepression U937 Cells GITAR Emax (%): activity repressed by 100 nM dexamethasone set as 100%
Excerpt: This assay assesses the ability of test compounds to control transcription from the TNFα-β-lactamase reporter gene in U937 cells, a human myelomonocytic leukemia cell line that naturally expresses the human GR. The assay measures compound dependent-repression of the TNFa promoter linked to a reporter gene.
The human U937 cells that had been stablely transfected with the TNF-α promoter driving β-lactamase are used for this assay. U937 cells contain an endogenous glucocorticoid receptor (GR). Cells are maintained in RPMI 1640 Growth medium (Gibco Cat#11875-093) containing 25 mM HEPES, 10% FBS, 2 mM L-Glutamine, 1 mM Sodium pyruvate, 25 μg/ml Gentamicin (Gibco Cat#15710-064), 1:1000 2-Mercaptoethanol (Gibco Cat#21985-023) and 0.8 mg/ml G418 (Gibco Cat#10131-027). The density of the cells in the flask needs to be about 1×106-3×10^6/ml at the time of harvest. Usually, the cells are split to 1.2˜1.4×10^5/ml (1:10) 3 days prior to the assay. 50,000 cells/well are plated in 96 well black-walled plates the day of assay. Test compounds are added 10 μL/well, and cells are incubated at 37° C. for 30˜45 min. For assaying compounds, first dilute 1:10 in DMSO to make 1 mM, then further dilute 1:100 in medium to make 10× stock prior to adding to the cells. Add 50 ng/ml PMA (Sigma, cat# P8139) 10 μL/well to a final concentration 5 ng/ml, and 1 μg/ml LPS (Sigma, cat# L4130) 10 μL/well to a final concentration 100 ng/ml. Incubate cells at 37° C. overnight for ˜18 hr. PMA is stored frozen as 100 μg/ml stock in DMSO. Dilute 1:10 in DMSO for a working stock of 10 μg/ml and store at −20 C. For assaying, dilute the 10 μg/ml working stock 1:200 in medium to make a 10× solution (50 ng/ml). Store frozen LPS at 1 mg/ml in PBS, dilute 1:1000 in medium to make 10× (1 μg/ml) for the assay. Add 6× loading buffer (CCF2-AM) 20 μL/well, and incubate at room temperature for 70˜90 min. […] The activity repressed by 100 nM dexamethasone alone is set as 100% activity.

Structure (SMILES) | Emax [%] | pEC50 | Transrepression U937 Cells GITAR Emax (%)
C[C@]12Cc3cnn(-c4ccc(F)cc4)c3C=C1CC[C@@]2(CO)CC(O)c1ccccn1 (single isomer, unassigned) [Example 1a] | 93 | 8.25 | –
C[C@]12Cc3cnn(-c4ccc(F)cc4)c3C=C1CC[C@@]2(CO)CC(O)c1ccccn1 (single isomer, unassigned) [Example 1b] | – | 7.62 | 91.7
Cc1ccc(C(O)C[C@]2(CO)CCC3=Cc4c(cnn4-c4ccc(F)cc4)C[C@@]32C)cc1 (single isomer, unassigned) [Example 2a] | – | 6.86 | 85.0
Cc1ccc(C(O)C[C@]2(CO)CCC3=Cc4c(cnn4-c4ccc(F)cc4)C[C@@]32C)cc1 (single isomer, unassigned) [Example 2b] | 94.4 | 6.63 | –
C[C@]12Cc3cnn(-c4ccc(F)cc4)c3C=C1CC[C@@]2(CO)CC(O)c1ccccc1Cl (single isomer, unassigned) [Example 3a] | 93.3 | 7.42 | –
C[C@]12Cc3cnn(-c4ccc(F)cc4)c3C=C1CC[C@@]2(CO)CC(O)c1ccccc1Cl (single isomer, unassigned) [Example 3b] | – | 8.22 | 99.6
Cc1cccc(C(O)C[C@]2(CO)CCC3=Cc4c(cnn4-c4ccc(F)cc4)C[C@@]32C)c1 (single isomer, unassigned) [Example 5a] | 84.7 | 7.06 | –
Cc1cccc(C(O)C[C@]2(CO)CCC3=Cc4c(cnn4-c4ccc(F)cc4)C[C@@]32C)c1 (single isomer, unassigned) [Example 5b] | – | 7.54 | 91.8
C[C@]12Cc3cnn(-c4ccc(F)cc4)c3C=C1CC[C@@]2(CO)CC(O)c1cc(F)cc(Cl)c1 (single isomer, unassigned) [Example 6a] | 104 | 7.45 | –
C[C@]12Cc3cnn(-c4ccc(F)cc4)c3C=C1CC[C@@]2(CO)CC(O)c1cc(F)cc(Cl)c1 (single isomer, unassigned) [Example 6b] | – | 7.16 | 98.3
C[C@]12Cc3cnn(-c4ccc(F)cc4)c3C=C1CC[C@@]2(CO)CC(O)c1cccc(C(F)(F)F)c1 (single isomer, unassigned) [Example 7a] | 95.3 | 7.06 | –
C[C@]12Cc3cnn(-c4ccc(F)cc4)c3C=C1CC[C@@]2(CO)CC(O)c1cccc(C(F)(F)F)c1 (single isomer, unassigned) [Example 7b] | – | 7.35 | 98.4
C[C@]12Cc3cnn(-c4ccc(F)cc4)c3C=C1CC[C@@]2(CO)CC(O)c1ncccc1F (single isomer, unassigned) [Example 10a] | 89.2 | 7.78 | –
C[C@]12Cc3cnn(-c4ccc(F)cc4)c3C=C1CC[C@@]2(CO)CC(O)c1ncccc1F (single isomer, unassigned) [Example 10b] | – | 8.40 | 93.9
C[C@]12Cc3cnn(-c4ccc(F)cc4)c3C=C1CC[C@@]2(CO)CC1OC(=O)c2ccccc21 (single isomer, unassigned) [Example 12a] | 78.8 | 7.03 | –
C[C@]12Cc3cnn(-c4ccc(F)cc4)c3C=C1CC[C@@]2(CO)CC1OC(=O)c2ccccc21 (single isomer, unassigned) [Example 12b] | – | 7.46 | 93.0

Structure (SMILES) | Emax [%] | pEC50 | Transrepression U937 Cells GITAR Emax (%)
C[C@]12Cc3cnn(-c4ccc(F)cc4)c3C=C1CC[C@@]2(CO)CC(O)c1ccccc1 (single isomer, unassigned) [Example 13a] | 91 | 8.41 | –
C[C@]12Cc3cnn(-c4ccc(F)cc4)c3C=C1CC[C@@]2(CO)CC(O)c1ccccc1 (single isomer, unassigned) [Example 13b] | – | 7.74 | 96.4
CC(C)C(O)C[C@]1(CO)CCC2=Cc3c(cnn3-c3ccc(F)cc3)C[C@@]21C (single isomer, unassigned) [Example 14a] | 82.2 | 5.95 | –
CC(C)C(O)C[C@]1(CO)CCC2=Cc3c(cnn3-c3ccc(F)cc3)C[C@@]21C (single isomer, unassigned) [Example 14b] | – | 6.60 | 82.3
C[C@]12Cc3cnn(-c4ccc(F)cc4)c3C=C1CC[C@@]2(CO)CC(O)c1cccnc1 (single isomer, unassigned) [Example 15a] | 87.7 | 7.25 | –
C[C@]12Cc3cnn(-c4ccc(F)cc4)c3C=C1CC[C@@]2(CO)CC(O)c1cccnc1 (single isomer, unassigned) [Example 15b] | – | 7.01 | 80.6
C[C@]12Cc3cnn(-c4ccc(F)cc4)c3C=C1CC[C@@]2(CO)CC(O)c1ccncc1 (single isomer, unassigned) [Example 17a] | 86.1 | 7.12 | –
C[C@]12Cc3cnn(-c4ccc(F)cc4)c3C=C1CC[C@@]2(CO)CC(O)c1ccncc1 (single isomer, unassigned) [Example 17b] | – | 7.22 | 83.3
C[C@]12Cc3cnn(-c4ccc(F)cc4)c3C=C1CC[C@@]2(CO)CC(O)C1CCCCC1 (single isomer, unassigned) [Example 18a, 1-cyclohexyl-2-[(4αS)-1-(4-fluorophenyl)-5-(hydroxymethyl)-4α-methyl-1,4,4α,5,6,7-hexahydrocyclopenta[f]indazol-5-yl]ethanol] | 93.1 | 8.10 | –
C[C@]12Cc3cnn(-c4ccc(F)cc4)c3C=C1CC[C@@]2(CO)CC(O)C1CCCCC1 (single isomer, unassigned) [Example 18b, 1-cyclohexyl-2-[(4αS)-1-(4-fluorophenyl)-5-(hydroxymethyl)-4α-methyl-1,4,4α,5,6,7-hexahydrocyclopenta[f]indazol-5-yl]ethanol] | – | 7.59 | 97.7
C[C@]12Cc3cnn(-c4cccc(F)c4)c3C=C1CC[C@@]2(CO)CC(O)c1ccccn1 (single isomer, unassigned) [Example 19a] | 91.2 | 7.49 | –
C[C@]12Cc3cnn(-c4cccc(F)c4)c3C=C1CC[C@@]2(CO)CC(O)c1ccccn1 (single isomer, unassigned) [Example 19b] | – | 7.13 | 86.7
C[C@]12Cc3cnn(-c4ccc(F)cc4)c3C=C1CC[C@@]2(CO)CC(O)C1CC1 (single isomer, unassigned) [Example 20a, 1-cyclopropyl-2-[(4αS)-1-(4-fluorophenyl)-5-(hydroxymethyl)-4α-methyl-1,4,4α,5,6,7-hexahydrocyclopenta[f]indazol-5-yl]ethanol] | 79.9 | 6.88 | –
C[C@]12Cc3cnn(-c4ccc(F)cc4)c3C=C1CC[C@@]2(CO)CC(O)C1CC1 (single isomer, unassigned) [Example 20b, 1-cyclopropyl-2-[(4αS)-1-(4-fluorophenyl)-5-(hydroxymethyl)-4α-methyl-1,4,4α,5,6,7-hexahydrocyclopenta[f]indazol-5-yl]ethanol] | – | 6.24 | 72.0
COc1cccnc1C(O)C[C@]1(CO)CCC2=Cc3c(cnn3-c3ccc(F)cc3)C[C@@]21C (single isomer, unassigned) [Example 21a] | 85.4 | 7.00 | –

Reference: US20120095055A1, “HEXAHYDROCYCLOPENTYL[f]INDAZOLE 5-HYDROXYMETHYL ETHANOLS AND DERIVATIVES THEREOF AS SELECTIVE GLUCOCORTICOID RECEPTOR MODULATORS” (Merck Sharp & Dohme, Corp., priority 2009, published 2012)
